Data published in PubChem BioAssay (NCI).
Values joined by “and” are separate entries in the source; they are usually repeats but may differ in a detail not shown here. Equal values may be shown once.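 Where inhibition never reached the appropriate level, the endpoint shown equals the highest concentration tested. Otherwise, values were interpolated linearly from a five-concentration, 48-hour dose response in 96-well plates. The concentration for 50% growth inhibition is given as GI50. TGI denotes the concentration required for complete inhibition of growth.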

Columns and labels:
Assay in all cases: NCI anticancer screen, dose series, 48 h
[1] = tested on: NCI/ADR-RES ovarian
[2] = tested on: EKVX NSCLC
[3] = tested on: NCI-H23 lung
[4] = tested on: SK-MEL-5 melanoma
[5] = tested on: SF-268 CNS
[6] = tested on: SNB-75 CNS
[7] = tested on: LOX IMVI melanoma
[8] = tested on: ACHN renal
[9] = tested on: HCT-15 colon
[10] = tested on: SF-539 CNS
[11] = tested on: KM12 colon

SMILES	TGI [1]	TGI [2]	TGI [3]	TGI [4]	TGI [5]	TGI [6]	TGI [7]	TGI [8] [µM]	TGI [9]	TGI [10]	TGI [11]	GI50 [4]	GI50 [5]	GI50 [6]	GI50 [9]	GI50 [2] [µM]	GI50 [3] [µM]	GI50 [10] [µM]	GI50 [11] [µM]	GI50 [1] [µM]
CC1CC[C@@]2(OC1)OC1CC3C4CCC5C[C@@H](OC6OC(CO)C(OC7OC(CO)C(O)C(OC8OC(CO)C(O)C(OC9OC(CO)C(O)C(O)C9O)C8O)C7OC7OC(CO)C(O)C(O)C7O)C(O)C6O)[C@H](O)C[C@]5(C)C4CC[C@]3(C)C1[C@@H]2C (some centres undefined)	> 80.5 µM	> 80.5 µM	> 80.5 µM	> 80.5 µM	> 80.5 µM	> 80.5 µM	> 80.5 µM	> 80.5	> 80.5 µM	> 80.5 µM	> 80.5 µM	–	–	–	–	–	–	–	–	–
O=S(=O)(O)c1ccc(N=Nc2c(O)ccc3cc(Br)ccc23)cc1	> 100 µM	> 100 µM	> 100 µM	> 100 µM	> 100 µM	> 100 µM	> 100 µM	> 100	> 100 µM	–	> 100 µM	–	–	–	–	–	–	–	–	–
OC1CCOc2ccccc21 (centres undefined)	–	> 100 µM	> 100 µM	> 100 µM	> 100 µM	–	> 100 µM	> 100	> 100 µM	> 100 µM	> 100 µM	–	–	–	–	–	–	–	–	–
CNC(=O)SCC(N)C(=O)O (centres undefined)	> 100 µM	> 100 µM	> 100 µM	> 100 µM	> 100 µM	> 100 µM	> 89.3 µM	–	> 100 µM	> 100 µM	> 100 µM	–	–	–	–	–	–	–	–	–
COc1cccc(/C=N/[N-]C(N)=O)c1[O-].[Ni+2].[OH3+].c1ccc(-c2ccccn2)nc1	–	> 100 µM	> 100 µM	> 100 µM	> 100 µM	> 100 µM	> 100 µM	> 100	> 100 µM	> 100 µM	> 100 µM	–	–	–	–	–	–	–	–	–
CC(=O)OC/C=C\Cn1nc(Br)c(=O)[nH]c1=O	56 µM	34.5 µM	32.5 µM	30.9 µM	31.5 µM	29.6 µM	20.1 µM	23.4	27.2 µM	24.7 µM	30.1 µM	–	–	–	–	–	–	–	–	–
C[C@]12CC/C(=N\O)C=C1CC[C@@H]1[C@@H]2CC[C@]2(C)C(=N/O)/C(=C/c3ccc([N+](=O)[O-])cc3)C[C@@H]12	> 100 µM	–	75.2 µM	16.2 µM	> 100 µM	26.9 µM	19.3 µM	> 100	> 100 µM	> 100 µM	23.6 µM	–	–	–	–	–	–	–	–	–
CCOC(=O)c1c(Cl)nc2ccccc2c1N=[N+]=[N-]	–	> 100 µM	> 100 µM	> 100 µM	30.5 µM	–	39.3 µM	> 100	34.6 µM	37.7 µM	31.5 µM	–	–	–	–	–	–	–	–	–
C1=C(c2ccccc2)Nc2nnnn2C1c1ccccc1 (centres undefined)	> 100 µM	–	> 100 µM	> 100 µM	> 100 µM	–	38.3 µM	57.2	37.7 µM	81 µM	28.6 µM	–	–	–	–	–	–	–	–	–
COC(=O)c1c(O)ccc2c1c1c(n2Cc2ccc(Cl)cc2Cl)C(=O)c2ccccc2C1=O	24.1 µM	24.5 µM	24.8 µM	27.1 µM	24.6 µM	32.3 µM	33.3 µM	20.4	18.5 µM	27.7 µM	15.9 µM	–	–	–	–	–	–	–	–	–
CC(=O)O[C@H]1/C(=C/c2ccncc2)C[C@H]2[C@@H]3CC=C4C[C@@H](N5CCCC5)CC[C@]4(C)[C@H]3CC[C@]12C	25.1 µM	29 µM	30.7 µM	21.1 µM	30.2 µM	28.3 µM	6.82 µM	27.7	24.7 µM	35 µM	26.2 µM	–	–	–	–	–	–	–	–	–
CC1CCC2(C(=O)O)CCC3(C)C(=CCC4C5(C)CCC(O)C(C)(C)C5CCC43C)C2C1C (centres undefined)	23.7 µM and 40.7 µM	23.2 µM and 28.6 µM	24.4 µM and 34.3 µM	50.8 µM and 23.8 µM	17.7 µM and 24.6 µM	16.5 µM and 30.4 µM	17.2 µM and > 100 µM	–	15.4 µM and 26.6 µM	22.5 µM and 35.6 µM	21 µM and 20.9 µM	26.4 µM and 11.3 µM	1.29 µM and 10.7 µM	1.52 µM and 13.3 µM	5.53 µM and 13.3 µM	–	–	–	–	–
O=C(N/N=C/c1cc(Cl)cc(Cl)c1[O-])c1ccccc1O.O=C(N/N=C/c1cc(Cl)cc(Cl)c1[O-])c1ccccc1O.[Zn+2]	–	9.88 µM	11.2 µM	2.94 µM	17.7 µM	16.4 µM	14.6 µM	12.9	15.6 µM	5.75 µM	17.9 µM	–	–	–	–	0.68	0.56	0.852	0.956	–
CCC(=O)c1ccc2[nH]c3c(C)c4c(=O)cc(C)[nH]c4c(C)c3c2c1	> 100 µM	> 100 µM	> 100 µM	> 100 µM	> 100 µM	> 100 µM	> 100 µM	> 100	> 100 µM	> 100 µM	> 100 µM	–	–	–	–	–	–	–	–	–
C/C=C/C1=CC(=O)C(O)C1O (centres undefined)	66.1 µM	148 µM	> 77.9 µM	79.8 µM	91.2 µM	67.5 µM	83 µM	–	97.2 µM	55.9 µM	39 µM	–	–	–	–	–	–	–	–	–
COc1ccc(/C(O)=C/c2nc3cccnc3nc2/C=C(\O)c2ccc(OC)cc2)cc1	53 µM	82.1 µM	30.7 µM	78.3 µM	28.6 µM	–	44.5 µM	53.5	> 100 µM	25.4 µM	> 100 µM	–	–	–	–	–	–	–	–	–
COc1cc(OC)c(/C=C\c2cc(/C=C/c3c(OC)cc(OC)cc3OC)c3ccccc3[n+]2C)c(OC)c1	> 100 µM	11.4 µM	9.25 µM	2 µM	10.5 µM	14.2 µM	18.3 µM	25.8	> 47.4 µM	5.93 µM	10.4 µM	–	–	–	–	–	–	–	–	–
Cc1ccc(-c2cc(C(F)(F)F)nn2-c2ccc(S(N)(=O)=O)cc2)cc1	43.1 µM	54.4 µM	37.7 µM	32.6 µM	> 55.8 µM	> 53.8 µM	31.7 µM	> 56	> 56.6 µM	> 59.4 µM	35.9 µM	–	–	–	–	–	–	–	–	–
S=C1CC(c2ccccc2)Sc2ccccc2N1 (centres undefined)	> 100 µM	> 100 µM	> 100 µM	> 100 µM	> 100 µM	> 100 µM	> 100 µM	> 100	> 100 µM	–	> 100 µM	–	–	–	–	–	–	–	–	–
[O-][n+]1ccccc1S	> 100 µM	> 100 µM	> 100 µM	30.9 µM	> 100 µM	> 100 µM	> 100 µM	> 100	> 100 µM	> 100 µM	20.3 µM	–	–	–	–	–	–	–	–	5.17
CC1(C)Cc2c(C#N)c(N)c3c(c2CO1)C(=O)OC3=O	–	> 100 µM	> 100 µM	> 100 µM	> 100 µM	–	> 100 µM	> 100	> 100 µM	> 100 µM	> 100 µM	–	–	–	–	–	–	–	–	–
CC(=O)NC(CCC(=O)C=[N+]=N)C(=O)O (centres undefined)	> 100 µM	> 100 µM	> 100 µM	> 100 µM	> 100 µM	> 100 µM	> 100 µM	> 100	> 100 µM	> 100 µM	> 100 µM	–	–	–	–	–	–	–	–	–
Cc1[nH]nc(N)c1C(N)=O	–	> 100 µM	> 100 µM	> 100 µM	> 100 µM	> 100 µM	> 100 µM	> 100	> 100 µM	> 100 µM	> 100 µM	–	–	–	–	–	–	–	–	–
